ChEMBL document CHEMBL4346657, “Anticancer activity, dual prooxidant/antioxidant effect and apoptosis induction profile of new bichalcophene-5-carboxamidines” (Eur J Med Chem, 2019)

Key:
[1] = tested on: RXF 393; test: Antiproliferative activity against human RXF393 cells assessed as growth inhibition after 48 hrs by sulforhodamine B assay; format: functional; conditions: RXF 393, 48 h
[2] = tested on: SN12C; test: Antiproliferative activity against human SN12C cells assessed as growth inhibition after 48 hrs by sulforhodamine B assay; format: functional
[3] = tested on: SNB-75; test: Antiproliferative activity against human SNB75 cells assessed as growth inhibition after 48 hrs by sulforhodamine B assay; format: functional; conditions: SNB-75, 48 h
[4] = tested on: UO-31; test: Antiproliferative activity against human UO31 cells assessed as growth inhibition after 48 hrs by sulforhodamine B assay; format: functional; conditions: UO-31, 48 h
[5] = tested on: SK-MEL-28; test: Antiproliferative activity against human SK-MEL-28 cells assessed as growth inhibition after 48 hrs by sulforhodamine B assay; format: functional; conditions: SK-MEL-28, 48 h
[6] = tested on: BT-549; test: Antiproliferative activity against human BT549 cells assessed as growth inhibition after 48 hrs by sulforhodamine B assay; format: functional; conditions: BT-549, 48 h
[7] = tested on: SF-295; test: Antiproliferative activity against human SF295 cells assessed as growth inhibition after 48 hrs by sulforhodamine B assay; format: functional; conditions: SF-295, 48 h
[8] = tested on: MDA-MB-231; test: Antiproliferative activity against human MDA-MB-231/ATCC cells assessed as growth inhibition after 48 hrs by sulforhodamine B assay; format: functional; conditions: MDA-MB-231, 48 h
[9] = tested on: SK-MEL-5; test: Antiproliferative activity against human SK-MEL-5 cells assessed as growth inhibition after 48 hrs by sulforhodamine B assay; format: functional; conditions: SK-MEL-5, 48 h
[10] = tested on: NCI-H322M; test: Antiproliferative activity against human NCI-H322M cells assessed as growth inhibition after 48 hrs by sulforhodamine B assay; format: functional
[11] = tested on: OVCAR-5; test: Antiproliferative activity against human OVCAR5 cells assessed as growth inhibition after 48 hrs by sulforhodamine B assay; format: functional; conditions: OVCAR-5, 48 h
[12] = Antioxidant activity assessed as ABTS radical scavenging activity by spectrophotometric method relative to ascorbic acid; format: functional
[13] = tested on: Panel NCI-60 (60 carcinoma cell lines); test: Antiproliferative activity against human NCI60 cells assessed as growth inhibition after 48 hrs by sulforhodamine B assay; format: functional
[14] = tested on: A498; test: Antiproliferative activity against human A498 cells assessed as growth inhibition after 48 hrs by sulforhodamine B assay; format: functional; conditions: A498, 48 h
[15] = tested on: Erythrocyte; test: Haemolytic activity in human erythrocytes assessed as induction of hemolysis at 0.625 mM after 30 mins relative to H202; format: cell-based; conditions: erythrocyte, 0.5 h, 625 µM
[16] = tested on: COLO 205; test: Antiproliferative activity against human COLO205 cells assessed as growth inhibition after 48 hrs by sulforhodamine B assay; format: functional; conditions: COLO 205, 48 h
[17] = tested on: NCI/ADR-RES; test: Antiproliferative activity against human NCI-ADR-RES cells assessed as growth inhibition after 48 hrs by sulforhodamine B assay; format: functional
[18] = tested on: HCT-15; test: Antiproliferative activity against human HCT15 cells assessed as growth inhibition after 48 hrs by sulforhodamine B assay; format: functional; conditions: HCT-15, 48 h
[19] = tested on: HCT-116; test: […] in CDK1 mRNA expression in human HCT116 cells at 100 nM after 6 hrs hrs by SYBR green dye-based qRT-PCR analysis relative to control; format: functional
[20] = tested on: SK-MEL-2; test: Antiproliferative activity against human SK-MEL-2 cells assessed as growth inhibition after 48 hrs by sulforhodamine B assay; format: functional; conditions: SK-MEL-2, 48 h
[21] = tested on: KM12; test: Antiproliferative activity against human KM12 cells assessed as growth inhibition after 48 hrs by sulforhodamine B assay; format: functional; conditions: KM12, 48 h
[22] = tested on: M14; test: Antiproliferative activity against human M14 cells assessed as growth inhibition after 48 hrs by sulforhodamine B assay; format: functional; conditions: M14, 48 h
[23] = tested on: SNB-19; test: Antiproliferative activity against human SNB19 cells assessed as growth inhibition after 48 hrs by sulforhodamine B assay; format: functional; conditions: SNB-19, 48 h
[24] = tested on: NCI-H226; test: Antiproliferative activity against human NCI-H226 cells assessed as growth inhibition after 48 hrs by sulforhodamine B assay; format: functional; conditions: NCI-H226, 48 h
[25] = tested on: WI-38; test: Cytotoxicity activity against human WI38 cells assessed as reduction in cell viability measured after 48 hrs by MTT assay; format: cell-based; conditions: WI-38, 48 h
[26] = tested on: NCI-H522; test: Antiproliferative activity against human NCI-H522 cells assessed as growth inhibition after 48 hrs by sulforhodamine B assay; format: functional; conditions: NCI-H522, 48 h
[27] = tested on: MDA-MB-435; test: Antiproliferative activity against human MDA-MB-435 cells assessed as growth inhibition after 48 hrs by sulforhodamine B assay; format: functional; conditions: MDA-MB-435, 48 h
[28] = tested on: Hs-578T; test: Antiproliferative activity against human Hs578T cells assessed as growth inhibition after 48 hrs by sulforhodamine B assay; format: functional
[29] = Haemolytic activity in human erythrocytes assessed as induction of hemolysis at 5 mM after 30 mins relative to H202; format: cell-based, Erythrocyte; conditions: read-out: Activity
[30] = tested on: OVCAR-3; test: Antiproliferative activity against human OVCAR3 cells assessed as growth inhibition after 48 hrs by sulforhodamine B assay; format: functional; conditions: OVCAR-3, 48 h
[31] = tested on: NCI-H460; test: Antiproliferative activity against human NCI-H460 cells assessed as growth inhibition after 48 hrs by sulforhodamine B assay; format: functional; conditions: NCI-H460, 48 h
[32] = tested on: 786-0; test: Antiproliferative activity against human 786-0 cells assessed as growth inhibition after 48 hrs by sulforhodamine B assay; format: functional; conditions: 786-0, 48 h
[33] = tested on: K562; test: Antiproliferative activity against human K562 cells assessed as growth inhibition after 48 hrs by sulforhodamine B assay; format: functional, cell-based; conditions: K562, 48 h, read-out: IC50
[34] = tested on: PC-3; test: Antiproliferative activity against human PC3 cells assessed as growth inhibition after 48 hrs by sulforhodamine B assay; format: functional; conditions: PC-3, 48 h
[35] = Selectivity index, ratio of IC50 for human WI38 cells to GI50 for human NCI60 cells
[36] = tested on: IGROV-1; test: Antiproliferative activity against human IGROV1 cells assessed as growth inhibition after 48 hrs by sulforhodamine B assay; format: functional; conditions: IGROV-1, 48 h
[37] = tested on: ACHN; test: Antiproliferative activity against human ACHN cells assessed as growth inhibition after 48 hrs by sulforhodamine B assay; format: functional
[38] = tested on: HL-60(TB); test: Antiproliferative activity against human HL-60(TB) cells assessed as growth inhibition after 48 hrs by sulforhodamine B assay; format: functional; conditions: HL-60, 48 h
[39] = tested on: CAKI-1; test: Antiproliferative activity against human CAKI-1 cells assessed as growth inhibition after 48 hrs by sulforhodamine B assay; format: functional; conditions: CAKI-1, 48 h
[40] = tested on: CCRF-CEM; test: Antiproliferative activity against human CCRF-CEM cells assessed as growth inhibition after 48 hrs by sulforhodamine B assay; format: functional
[41] = tested on: EKVX; test: Antiproliferative activity against human EKVX cells assessed as growth inhibition after 48 hrs by sulforhodamine B assay; format: functional
[42] = tested on: HCT-116; test: Induction of apoptosis in human HCT116 cells assessed as increase in p53 mRNA expression at 100 nM after 6 hrs hrs by SYBR green dye-based qRT-PCR analysis relative to control; format: functional

N=C(N)c1ccc(-c2ccc(-c3ccc4ccccc4c3)s2)s1
GI50 [1]: 1930 nM | GI50 [2]: 1870 nM | GI50 [3]: 1930 nM | GI50 [4]: 1960 nM | GI50 [5]: 2250 nM | GI50 [6]: 17600 nM | GI50 [7]: 2270 nM | GI50 [8]: 1850 nM | GI50 [9]: 14700 nM | GI50 [10]: 1640 nM | GI50 [11]: 1810 nM | fold change (FC) [12]: 0.8 | GI50 [13]: 2390 nM | LC50 [13]: 30200 nM | TGI [13]: 6020 nM | GI50 [14]: 1700 nM | Activity [15]: Non-Toxic | GI50 [16]: 1630 nM | GI50 [17]: 2020 nM | GI50 [18]: 1690 nM | fold change (FC) [19]: 0.93 | GI50 [20]: 2520 nM | GI50 [21]: 1920 nM | GI50 [22]: 2450 nM | GI50 [23]: 1950 nM | GI50 [24]: 33600 nM | IC50 [25]: 81300 nM | GI50 [26]: 1960 nM | GI50 [27]: 1910 nM | GI50 [28]: 2070 nM | hemolysis at 0.5 h, 5000 µM [29]: 13% | GI50 [30]: 1890 nM | GI50 [31]: 1950 nM | GI50 [32]: 2140 nM | IC50 [33]: 1530 nM | GI50 [34]: 2190 nM | Selectivity Index [35]: 34 | GI50 [36]: 2160 nM | GI50 [37]: 2530 nM | GI50 [38]: 1810 nM | GI50 [39]: 3110 nM | GI50 [40]: 1870 nM | GI50 [41]: 2460 nM | fold change (FC) [42]: 1

COc1cc(-c2ccc(-c3ccc(C(=N)N)s3)s2)cc(OC)c1OC
GI50 [1]: 1660 nM | GI50 [2]: 1610 nM | GI50 [3]: 1500 nM | GI50 [4]: 1740 nM | GI50 [5]: 1580 nM | GI50 [6]: 1770 nM | GI50 [7]: 1780 nM | GI50 [8]: 1880 nM | GI50 [9]: 1520 nM | GI50 [10]: 2380 nM | GI50 [11]: 1470 nM | fold change (FC) [12]: 0.8 | GI50 [13]: 1910 nM | LC50 [13]: 20900 nM | TGI [13]: 4160 nM | GI50 [14]: 2250 nM | Activity [15]: Non-Toxic | GI50 [16]: 2130 nM | GI50 [17]: 3440 nM | GI50 [18]: 1910 nM | fold change (FC) [19]: 0.81 | GI50 [21]: 1730 nM | GI50 [22]: 1700 nM | GI50 [23]: 2160 nM | GI50 [24]: 1880 nM | IC50 [25]: 65700 nM | GI50 [26]: 1940 nM | GI50 [27]: 1640 nM | hemolysis at 0.5 h, 5000 µM [29]: 38.7% | GI50 [30]: 2220 nM | GI50 [31]: 1990 nM | GI50 [32]: 1730 nM | IC50 [33]: 1110 nM | GI50 [34]: 1770 nM | Selectivity Index [35]: 34.4 | GI50 [36]: 1980 nM | GI50 [37]: 1780 nM | GI50 [38]: 2700 nM | GI50 [39]: 1700 nM | GI50 [40]: 3420 nM | GI50 [41]: 1920 nM | fold change (FC) [42]: 1.01
